Data from patent US20120289612A1, “Composite Material and Method for Producing the Same” (HOUSE FOODS CORPORATION, priority 2010, published 2012).

Tested on: acylase
Experiment: Enzyme addition: decomposition of capsaicin by acylase, HPLC
Assay type: physicochemical
Settings: acylase 0.05 u/ml, 50 mM tris buffer, 37° C., capsaicin 0.0028%, relative to beginning of shaking
Description: Each of the samples obtained in Reference Example 2 and Reference Comparative Example 2 was diluted 10-fold with a 50 mM tris buffer (capsaicin concentration: 0.0028%). To this liquid, an acylase was added at a concentration of 0.05 u/ml. The mixture was shaken in a constant-temperature water bath at 37° C. to allow the reaction of the enzyme to proceed.
Meanwhile, as Reference Example, a capsaicin reagent (capsaicin content: 95% or more) manufactured by SIGMA was diluted with a 50 mM tris buffer such that the capsaicin concentration was the same as that (0.0028%) in Reference Example 2 and Reference Comparative Example 2. To this liquid, an acylase was added at a concentration of 0.05 u/ml. The mixture was shaken in a constant-temperature water bath at 37° C. in the same manner as in Reference Example 2 and Reference Comparative Example 2, to allow the reaction of the enzyme to proceed.
To 2 ml of each sample in which the reaction of the enzyme was allowed to proceed for 0 (at the beginning of the shaking) minutes, 30 minutes, or 60 minutes, 3 ml of water was added, and thus the volume thereof was adjusted to 5 ml. Moreover, 1 ml of 2.5 N NaOH was added thereto, followed by heating in boiling water at 100° C. for 10 minutes. After the heating, 20 ml of methanol was added thereto. […] For the HPLC measurement, a fluorescence detector was used. […]

- ratio of capsaicin remaining after the enzymatic reaction for 60 minutes: 2.0%
Compound: COc1cc(CNC(=O)CCCC/C=C/C(C)C)ccc1O [Reference Example, capsaicin]
